Reference: PMC6173183 (International Journal of Nanomedicine, 2018)

Tested on: in vitro BBB model (HBMEC)
Experiment: BBB penetration in vitro: transport ratio across HBMEC transwell model
Assay type: in vitro ADME, human
Conditions: 240 minutes, FITC 10 μmol⋅L^−1

In the case of fluorescein isothiocyanate [FITC], the BBB transportation ratio is reported as 4.53%.
